Assay [1] has as its target 1-phosphatidylinositol 4,5-bisphosphate phosphodiesterase gamma-1 (Homo sapiens, UniProt P19174). Nature of the assay: Counterscreen for inhibitors of phospholipase C isozymes (PLC-B3): Fluorescence-based biochemical high throughput dose response assay to identify inhibitors of phospholipase C isozymes (PLC-gamma1). A general note: Counterscreens check selectivity or assay interference.

Assay [2] deals with 1-phosphatidylinositol 4,5-bisphosphate phosphodiesterase beta-3 (Homo sapiens, UniProt Q01970). Nature of the assay: Fluorescence-based biochemical high throughput dose response assay to identify inhibitors of phospholipase C isozymes (PLC-B3).
Assay [3] concerns the target Peroxisome proliferator-activated receptor gamma/Nuclear receptor coactivator 1 (Homo sapiens, UniProt P37231). Briefly: TR-FRET dose response biochemical High Throughput Screening assay for agonists of the steroid receptor coactivator 1 (SRC-1) recruitment by the peroxisome proliferator-activated receptor gamma (PPAR gamma): non-selective agonists. [Related pubchem assays (depositor defined):AID1300, AID1808, AID504735, AID631]. The format is protein assay.

For assay [4], the target named is Peroxisome proliferator-activated receptor gamma/Nuclear receptor coactivator 3 (Homo sapiens, UniProt P37231). Briefly: TR-FRET dose response biochemical High Throughput Screening assay for agonists of the steroid receptor coactivator 3 (SRC-3) recruitment by the peroxisome proliferator-activated receptor gamma (PPAR gamma): non-selective agonists. [Related pubchem assays: 1301 (Confirmation screen.), 1048 (Primary screen.)]. The assay is classed as functional. Background: Time-resolved FRET reads energy transfer from a long-lived donor to a nearby acceptor.

For assay [5], the target named is Peroxisome proliferator-activated receptor gamma/Nuclear receptor coactivator 2 (Homo sapiens, UniProt P37231). Briefly: TR-FRET dose response biochemical High Throughput Screening assay for agonists of the steroid receptor coactivator 2 (SRC-2) recruitment by the peroxisome proliferator-activated receptor gamma (PPAR gamma): non-selective agonists. [Related pubchem assays: 1297, 1032 ]. The format is functional.

Assay [6] addresses DNA dC->dU-editing enzyme APOBEC-3A (Homo sapiens, UniProt P31941). Briefly: A3A deaminase inhibition for selectivity – biochemical, dose response (AID 504722). The format is functional.
Assay [7] addresses DNA dC->dU-editing enzyme APOBEC-3G (Homo sapiens, UniProt Q9HC16). Nature of the assay: Dose Response confirmation of small molecule APOBEC3G DNA Deaminase Inhibitors via a fluorescence-based single-stranded DNA deaminase assay. [Related pubchem assays (depositor defined):AID493012, AID493028]. The format is functional.
Assay [8] addresses FAD-linked sulfhydryl oxidase ALR (Homo sapiens, UniProt P55789). Briefly: ALR-catalysed DTT oxidation blockers – biochemical, H2O2 detection, luminescence, cherry-pick, dose response (AID 493248).
Another assay has as its target Major prion protein (Homo sapiens, UniProt P04156). The assay is classed as functional, cell-based.
A short description of assay [9]: cells.
For assay [10], the target named is Kappa-type opioid receptor (Homo sapiens, UniProt P41145). Briefly: Late-stage fluorescence-based cell-based dose response assay for antagonists of kappa opioid receptor 1 (OPRK1). The assay is classed as functional.
A further assay concerns the target Mu-type opioid receptor (Homo sapiens, UniProt P35372). Nature of the assay: Late-stage results from the probe development effort to identify antagonists of OPRK1: luminescence-based cell-based dose response OPRM1 counterscreen, Set 2. The assay is classed as functional.
The target of assay [11] is Delta-type opioid receptor (Homo sapiens, UniProt P41143). Briefly: Late-stage results from the probe development effort to identify antagonists of OPRK1: fluorescence-based cell-based dose response OPRD1 counterscreen, Set 2. The format is functional.
In assay [12] the target is Sphingosine 1-phosphate receptor 1 (Homo sapiens, UniProt P21453). Briefly: Late-stage counterscreen for antagonists of kappa opioid receptor 1 (OPRK1): fluorescence-based cell-based dose response assay to identify antagonists of Sphingosine 1-Phosphate Receptor 1 (S1P1). The assay is classed as functional.
Assay [13] in a line: inhibitors of non-replicating M. tuberculosis, dose response, luciferase, dry powder (AID 651619). The format is functional. As to conditions: Mycobacterium tuberculosis.
The nature of assay [14]: viability loss in HEK293T cells – cell-based, CellTiter-Glo luminescence, dry powder, set 6, cytotoxicity control, dose response (AID 651949). The format is functional. The note with it: HEK293. (In general: Cellular ATP, detected with luciferase, serves as a proxy for viable cell number.)
Assay [15] can be described thus: inhibitors of non-replicating M. tuberculosis, dose response, luciferase, dry powder (AID 651620). The format is functional. The note with it: Mycobacterium tuberculosis.
The nature of assay [16]: growth inhibition of replicating M. tuberculosis, dose response, counter-screen, dry powder, IC90 (AID 651617). The assay is classed as functional. As to conditions: Mycobacterium tuberculosis.
The target in assay [17] is Glucose-6-phosphate 1-dehydrogenase (Homo sapiens, UniProt P11413). Nature of the assay: inhibition of Homo sapiens G6PD, dose series – biochemical, fluorescence, selectivity assay for P. falciparum G6PD inhibitor project, dose response (AID 504792). The assay is classed as functional.
Assay [18] in a line: viability loss in HeLa cells – cytotoxicity control for MgcRacGAP inhibitor project, dose response (AID 624300). The format is functional.
The nature of assay [19]: blockers of FN fibrillogenesis by fibroblasts – AH1F cells, Alexa488-FN fluorescence, cherry-picks, dose response (AID 1035475). The format is functional, cell-based.
Assay [20] has as its target T1, Microphthalmia-associated transcription factor (Homo sapiens, UniProt O75030).
T1 sequence (O75030 whole entry): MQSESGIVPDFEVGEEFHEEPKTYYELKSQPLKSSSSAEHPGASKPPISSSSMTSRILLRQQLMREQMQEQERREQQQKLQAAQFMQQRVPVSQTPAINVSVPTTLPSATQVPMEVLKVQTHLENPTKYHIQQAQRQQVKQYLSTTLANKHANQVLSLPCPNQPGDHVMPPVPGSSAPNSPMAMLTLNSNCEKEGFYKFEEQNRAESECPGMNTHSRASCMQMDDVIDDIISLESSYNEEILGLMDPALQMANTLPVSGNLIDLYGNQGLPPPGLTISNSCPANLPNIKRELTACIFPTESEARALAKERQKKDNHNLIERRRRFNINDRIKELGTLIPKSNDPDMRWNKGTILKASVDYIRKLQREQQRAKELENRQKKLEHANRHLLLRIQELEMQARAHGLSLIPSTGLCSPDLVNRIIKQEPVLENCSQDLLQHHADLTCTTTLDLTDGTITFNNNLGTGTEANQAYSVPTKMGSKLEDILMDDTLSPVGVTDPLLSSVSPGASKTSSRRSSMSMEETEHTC
Nature of the assay: reducers of TRPM1 reporter luminescence, concentration series – cell-based, SK-MEL-5, cherry-picked, set 3, MITF inhibitor project, dose response (AID 493073).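 Further: SK-MEL-5 melanoma cells with luciferase driven by the MITF target TRPM1 promoter.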 The assay is classed as functional.

The test system of the next assay is A-375. Briefly: MITF: Counter assay: A375 proliferation Measured in Cell-Based System Using Plate Reader - 2084-03_Inhibitor_Dose_DryPowder_Activity. [Related pubchem assays (depositor defined):AID488944]. The assay is classed as functional. As to conditions: Homo sapiens.
For assay [21], the target named is SWI/SNF-related matrix-associated actin-dependent regulator of chromatin subfamily A member 2 (Homo sapiens, UniProt P51531). Nature of the assay: Luminescence-based cell-based high throughput dose response assay to identify activators of the function of SWI/SNF related, matrix associated, actin dependent regulator of chromatin, subfamily a, member 2 (SMARCA2, BRM). The assay is classed as functional.

Assay [22] in a line: Counterscreen for activators of the function of SWI/SNF related, matrix associated, actin dependent regulator of chromatin, subfamily a, member 2 (SMARCA2, BRM): Luminescence-based cell-based high throughput dose response assay to identify non-selective compounds using the VP16 reporter assay. The assay is classed as functional.
Assay [23] can be described thus: viability loss in HepG2 liver cells – cell-based, ATP luminescence, cherry-pick, set 6, cytotoxicity control, dose response (AID 1053125). The assay is classed as functional.
A short description of assay [24]: cells. The note with it: A549.
Assay [25] is described as follows: cells. As to conditions: HEK293.
Assay [26] is described as follows: Luminescence Cell-Based Dose Retest to Confirm Inhibitors of Cancer Stem Cells. [Related pubchem assays (depositor defined):AID2717, AID2721]. The assay is classed as functional. The note with it: Homo sapiens.
For the next assay, the target named is T2, Protein skinhead-1 (Caenorhabditis elegans, UniProt P34707).
T2 sequence (P34707 whole entry): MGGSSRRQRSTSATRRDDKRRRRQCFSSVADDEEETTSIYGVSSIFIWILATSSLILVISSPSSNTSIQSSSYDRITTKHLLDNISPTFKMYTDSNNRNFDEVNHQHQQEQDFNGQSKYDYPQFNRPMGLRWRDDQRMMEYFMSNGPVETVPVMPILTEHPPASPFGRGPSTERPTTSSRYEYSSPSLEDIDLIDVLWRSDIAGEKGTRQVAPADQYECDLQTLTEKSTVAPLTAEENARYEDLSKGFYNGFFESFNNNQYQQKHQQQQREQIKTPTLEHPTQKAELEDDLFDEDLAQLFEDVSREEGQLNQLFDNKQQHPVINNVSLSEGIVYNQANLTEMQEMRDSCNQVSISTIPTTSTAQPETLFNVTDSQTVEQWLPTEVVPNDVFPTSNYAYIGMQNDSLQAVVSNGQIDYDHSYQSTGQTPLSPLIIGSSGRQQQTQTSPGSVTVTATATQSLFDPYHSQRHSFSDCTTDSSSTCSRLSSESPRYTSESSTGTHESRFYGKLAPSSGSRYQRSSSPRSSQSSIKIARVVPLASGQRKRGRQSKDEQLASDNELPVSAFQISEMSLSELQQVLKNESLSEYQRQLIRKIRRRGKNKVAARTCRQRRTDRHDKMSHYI
The format is functional.

Assay [27] is described as follows: Luminescence-based cell-based high throughput dose response assay to identify activators of the DAF-12 from the parasite S. stercoralis (ssDAF-12). The assay is classed as functional.
For assay [28], the target named is T3, Oxysterols receptor LXR-beta (Homo sapiens, UniProt P55055).
T3 sequence (P55055 whole entry): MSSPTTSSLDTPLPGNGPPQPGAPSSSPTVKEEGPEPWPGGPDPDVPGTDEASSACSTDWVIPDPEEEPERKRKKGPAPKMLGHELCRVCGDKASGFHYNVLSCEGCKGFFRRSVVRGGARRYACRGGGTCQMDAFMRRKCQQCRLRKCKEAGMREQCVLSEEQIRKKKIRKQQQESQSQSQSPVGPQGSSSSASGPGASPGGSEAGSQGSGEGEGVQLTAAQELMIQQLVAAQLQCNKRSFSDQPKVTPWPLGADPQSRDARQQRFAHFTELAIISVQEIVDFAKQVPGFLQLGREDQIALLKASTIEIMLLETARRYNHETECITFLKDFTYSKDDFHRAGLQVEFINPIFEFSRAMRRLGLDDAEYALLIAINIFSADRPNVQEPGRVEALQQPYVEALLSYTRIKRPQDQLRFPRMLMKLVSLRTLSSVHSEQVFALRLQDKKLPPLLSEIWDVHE
Nature of the assay: LXR agonists, Gal4 luciferase reporter, dose response, counter-screen for ssDAF-12 agonist project, cell-based, luminescence, HEK293, S. stercoralis campaign (AID 720737). The assay is classed as functional. As to conditions: read-out: IC50 (the source's name).

Assay [29] in a line: viability loss in HepG2 hepatoma cells – cell-based, ATP luminescence, cherry-pick, activator set 2, cytotoxicity control, dose response (AID 1053143). The format is functional.
For assay [30], the target named is T3, Oxysterols receptor LXR-beta. The assay is classed as functional, cell-based.

One may read the IC50 as the concentration at which inhibition is half-maximal. As a reminder, the AC50 is the concentration giving half of the maximal activity seen. What is called IC90 is the point of the concentration-response curve where the effect stands at 90%. What is called CC50 is the concentration that lowers cell viability or growth by half.

Activity calls are given as the source filed them.

For `O=C(NCc1ccc(F)cc1)c1cc2c(s1)CCCC2`, the IC50 in assay [1] and in [2] was > 123 µM (inactive) in each case.

As for `COc1ccccc1-c1n[nH]c(=S)n1-c1ccccc1`, the EC50 was 10.5 µM (inactive) in assay [3], > 79.4 µM (not active) in [4] and 6.26 µM (active) in assay [5]. The IC50 in assay [6] is > 100 µM (inactive); in assay [7], 4.99 µM (active); at Major prion protein it was 7.18 µM (active). Besides, in assay [8], the AC50 was 0.058 µM (active).

As to `COc1ccccc1-c1nnc(S)n1-c1ccccc1`, the IC50 in the assay “cells [9]” was > 138 µM (inactive).

Consider `CN(C)c1cccc2c1c(NC(=O)Nc1ccc(OCc3ccccc3)cc1)nn2C`, for which the half-inhibitory concentration (IC50) is 1.82 µM (active) in assay [10], 42.9 µM (inactive) at Mu-type opioid receptor, 4.38 µM (active) in [11] and 34.9 µM (inactive) in assay [12].

For `Fc1ccc(Cn2cc(CSc3nnc(C4CCC4)o3)nn2)cc1`, the IC90 is 4 µM (active) in assay [13], 4 µM (active) in [15] and 250 µM (active) in assay [16]. Also, the AC50 in [14] is 47.1 µM (active).

On to `O=C(Nc1nc(-c2ccncc2)cs1)C1COc2ccccc2O1` (centres undefined), for which the IC50 in assay [17] was > 80 µM (inactive). Moreover, the CC50 in [18] is 100 µM (active). For the same compound, in assay [19], the AC50 is 0.512 µM (active).

As to `c1ccc2cc3c(NCCN4CCOCC4)ccnc3cc2c1`, the AC50 was 2.91 µM (active) in [20]; 21.2 µM (active) in the assay with A-375; 12 µM (active) in assay [23]; 6.11 µM (active) in the assay “cells [24]”; 9.44 µM (active) in the assay “cells [25]”. For the same compound, the EC50 in [21] was 11.1 µM (inactive); in [22], > 91.2 µM (inactive).

As for `Oc1cccc(/C=C/c2ccc3cccc(O)c3n2)c1`, the figures for the AC50 in assay [26] and in assay [29] were 3.91 µM (active) and 26 µM (active), respectively. For the same compound, the IC50 on Protein skinhead-1 was > 100 µM (inactive); in assay [27] it was > 67.6 µM (inactive). Also, the EC50 in assay [28] and in [30] was > 67.6 µM (inactive) in each case.

Values taken from ChEMBL document CHEMBL1201862, “PubChem BioAssay data set” (2004).
